Patent US20170071901A1, “METHODS AND FORMULATIONS FOR INCREASING CHEMICAL STABILITY AND BIOLOGICAL ACTIVITY OF PHENOLIC COMPOUNDS” (priority 2015, published 2017)
“Also recorded” adds a separate entry of the source. Like-named read-outs stand apart in the source and are kept apart here. Each block holds one compound with its values, some of them ahead of it.

How the values were obtained:
[1] = test system: MC38 colon cancer cells; test: MC38 colon cancer cell proliferation (MTT assay); assay type: cell-based; conditions: for effect of antioxidant alone on MC38 cell proliferation: 3.9-62.5 μM antioxidant alone; for effect of antioxidant alone on MC38 cell proliferation / effect of antioxidant on anti-proliferative effect of curcumin: 24 h; for effect of antioxidant on anti-proliferative effect of curcumin: MC38, curcumin 20 μM with antioxidant (3.9 μM each, FIG. 4D); for inhibition at 10 µg/mL: Mus musculus
Method: MC38 colon cancer cells (a gift from Prof. Ajit Varki at the University of California, San Diego) were plated into 96-well plates (6,000 cells per well) in 100 μL Dulbecco's Modified Eagle Medium (DMEM, purchased from Lonza, Allendale, N.J.) fortified with 10% Fetal Bovine Serum ([…], purchased from Coming Inc., Corning, N.Y.) and allowed to attach overnight. […] Nitteranon, V.; Chan, L. Y.; Parkin, K. L. Glutathione conjugation attenuates biological activities of 6-dehydroshogaol from ginger. Food Chem. 140:1-8; 2013, which is incorporated by reference herein in its entirety and for all purposes.

[2] = test system: MC38 colon cancer cells; test: Cell cycle progression and apoptosis in MC38 colon cancer cells; assay type: cell-based; conditions: MC38, 24 hour treatment
[3] = test system: LPS-induced NO production; test: LPS-induced NO production in RAW 264.7 macrophage cells; assay type: cell-based
[4] = test system: iNOS; test: LPS-induced expression of iNOS in RAW 264.7 macrophage cells; assay type: cell-based
[5] = test system: NF-kB signaling; test: LPS-induced NF-kB signaling in RAW 264.7 macrophage cells; assay type: cell-based
[6] = for stability of the compound in phosphate buffer (HPLC): 25 μM of each compound, 0.1 M phosphate buffer pH 7.4
[7] = Curcumin stability in serum-free basal DMEM medium (HPLC); assay type: physicochemical
Source text: (A1-A6) Representative microscope images of the treated cells. […] The results are mean ±SD, The samples designated with different letters are statistically different (P <0.05).

[8] = Plasma concentration of curcumin in mice after i.p. injection (HPLC); assay type: in vivo; conditions: male, Swiss Webster, mouse, intraperitoneal, 20 mg/kg
Method: After 1 h, the mice were sacrificed to harvest the blood. The harvested blood was centrifuged at 1,200 g for 10 min at 4° C. to prepare the plasma fraction; then 200 μL plasma was immediately extracted with 400 μL ethyl acetate, the ethyl acetate extract was dried and reconstituted in methanol for HPLC analysis.
The mobile phase consisted methanol with 0.1% acetic acid (mobile phase B) and water with 0.1% acetic acid (mobile phase A).

[9] = test system: COX-2; conditions: RAW 264.7 macrophage cells
[10] = aqueous buffer, background statement; cited from earlier work
[11] = test system: colorectal cancer; conditions: human, cited from earlier work
[12] = test system: advanced pancreatic cancer; conditions: human, daily intake of 8 grams; cited from earlier work
[13] = physchem; conditions: 0.1 M phosphate buffer, pH 7.4
[14] = test system: Cadmium-induced hepatotoxicity; conditions: rats; 200-400 mg/kg curcumin alone, 400 mg/kg ascorbate alone, or their combination; cited from earlier work
[15] = 25 μM curcumin, 0.1 M phosphate buffer, with or without 150 μM antioxidant, HPLC, % of time 0

Compound: bicyclopentadione [BCP]
inhibition of cancer cell proliferation in the tested dose range ([1]; MC38, 10-40 μg/mL, 24-72 h treatment): completely inactive
G2 cell cycle arrest and apoptosis [2]: neither TDP nor BCP had such effects
inhibition of LPS-induced NO production [3]: no effect
inhibition of LPS-induced expression of iNOS [4]: no effect
inhibition of LPS-induced NF-kB signaling (IKK phosphorylation, IκBα degradation, nuclear translocation of p65) [5]: neither TDP nor BCP had such inhibitory effect

Compound: O=C1O[C@H]([C@@H](O)CO)C(O)=C1O [ascorbate]
effect of antioxidant alone on MC38 cell proliferation [1]: no effect

Compound: O=C(O)c1cc(O)c(O)c(O)c1 [gallic acid]
effect of antioxidant on anti-proliferative effect of curcumin [1]: significantly increased anti-proliferative effects of curcumin
effect of co-added antioxidant on curcumin stability (colorimetric assay, absorbance 420 nm) ([6]; 25 μM curcumin, phosphate buffer, dose of antioxidants 15 and 1.50 μM as printed): dramatically increased curcumin stability
effect of co-added antioxidant on long-term stability of curcumin ([6]; 24-h and 48-h incubation, antioxidant 150 μM, 25 μM curcumin, phosphate buffer, HPLC): significantly increased long-term stability of curcumin

Compound: CC(C)(C)c1cc(O)ccc1O [TBHQ, tert-butylhydroquinone]
effect of antioxidant on anti-proliferative effect of curcumin [1]: significantly increased anti-proliferative effects of curcumin

Compound: O=C(/C=C/c1ccc(O)c(O)c1)O[C@H](Cc1ccc(O)c(O)c1)C(=O)O [rosmarinic acid]
effect of antioxidant on anti-proliferative effect of curcumin [1]: significantly increased anti-proliferative effects of curcumin

Compound: COc1ccc(C=CC(=O)CC(=O)C=Cc2ccc(OC)c(OC)c2)cc1OC [dimethoxy curcumin, 1,7-bis(3,4-dimethoxyphenyl)-1,6-heptadiene-3,5-dione]
stability of the compound in phosphate buffer (HPLC) [6]: very stable

Compound: Cc1c(C)c2c(c(C)c1O)CCC(C)(C(=O)O)O2 (stereo not drawn) [Trolox]
effect of antioxidant alone on MC38 cell proliferation [1]: no effect
effect of antioxidant on anti-proliferative effect of curcumin [1]: significantly increased anti-proliferative effects of curcumin

Compound: O=C(O)/C=C/c1ccc(O)c(O)c1 [caffeic acid]
effect of antioxidant on anti-proliferative effect of curcumin [1]: significantly increased anti-proliferative effects of curcumin

protective effect of EDTA on curcumin stability (HPLC) ([6]; EDTA even at a dose as high as 200 μM, phosphate buffer): little protective effect
Compound: O=C([O-])CN(CCN(CC(=O)O)CC(=O)O)CC(=O)[O-].[Na+].[Na+] [EDTA, disodiumethylenediaminetetra acetic acid]

Compound: COc1cc(/C=C/C(=O)CC(=O)/C=C/c2ccc(O)c(OC)c2)ccc1O [curcumin]
stability of curcumin in basal medium [7]: rapidly degraded
inhibition at 10 µg/mL ([1]; MC-38, 24 h, read-out: inhibition of MC38 proliferation after 24 h treatment): ~60%
inhibition at 10 µg/mL ([1]; MC-38, read-out: inhibition of MC38 proliferation after 48-72 h treatment): > 95%
concentration at 1 h [8]: 14.8 ± 16 nM
G2 cell cycle arrest and apoptosis [2]: significantly induced G2 cell cycle arrest and apoptosis
inhibition of LPS-induced NO production [3]: inhibited LPS-induced NO production in a dose-dependent manner
inhibition of LPS-induced expression of iNOS [4]: dose-dependently inhibited
inhibition of LPS-induced NF-kB signaling (IKK phosphorylation, IκBα degradation, nuclear translocation of p65) [5]: inhibited LPS-induced activation of NF-kB signaling
degradation of curcumin in the buffer (HPLC) ([6]; 25 μM curcumin, 0.1 M phosphate buffer pH 7.4, after ~12-min incubation): 80-90%
curcumin remaining in the phosphate buffer after 24-h incubation [6, 15]: ~5.9%
curcumin remaining in the phosphate buffer after 48-h incubation [6, 15]: ~4.2%
stability of the compound in phosphate buffer (HPLC) [6]: rapidly degraded
inhibition of LPS-induced expression of inflammatory protein COX-2 [9]: inhibited
half-life of curcumin at physiological pH [10]: several minutes
effect in Phase IIa trial of colorectal cancer at 2 grams/day ([11]; 2 grams/day): no effect
effect in Phase IIa trial of colorectal cancer at 4 grams/day ([11]; 4 grams/day): only inhibited aberrant crypt foci; also recorded: only reduced colorectal cancer risks
reduction of aberrant crypt foci ([11]; daily intake of 4 grams of curcumin for a month): ~40%
anti-cancer efficacy in advanced pancreatic cancer [12]: demonstrates anti-cancer efficacy in some patients
half-life at 25 μM [13]: < 10 min
effect on Cadmium-induced hepatotoxicity [14]: no effect
